# Active and inactive are the calls of the source. The calls are words filed in the database; no cut-off is given here.
# What was measured:
# [1] = target: 5-hydroxytryptamine receptor 1A (Homo sapiens, UniProt P08908); test: Inhibition of 5-HT1A receptor (unknown origin) by PDSP assay
# [2] = target: Delta-type opioid receptor (Homo sapiens, UniProt P41143); test: Inhibition of delta opioid receptor (unknown origin) by PDSP assay
# [3] = target: Mu-type opioid receptor (Homo sapiens, UniProt P35372); test: Inhibition of mu opioid receptor (unknown origin) by PDSP assay
# [4] = target: 5-hydroxytryptamine receptor 6 (Homo sapiens, UniProt P50406); test: Inhibition of 5-HT6 receptor (unknown origin) by PDSP assay
# [5] = target: 5-hydroxytryptamine receptor 5A (Homo sapiens, UniProt P47898); test: Inhibition of 5-HT5A receptor (unknown origin) by PDSP assay
# [6] = target: Sodium-dependent noradrenaline transporter (Homo sapiens, UniProt P23975); test: Displacement of [3H]-nisoxetine from human NET expressed in HEK cell membranes; design: species or system HEK293
# [7] = target: 5-hydroxytryptamine receptor 1B (Homo sapiens, UniProt P28222); test: Inhibition of 5-HT1B receptor (unknown origin) by PDSP assay
# [8] = target: D(4) dopamine receptor (Homo sapiens, UniProt P21917); test: Inhibition of dopamine D4 receptor (unknown origin) by PDSP assay
# [9] = system: RAW264.7; test: Neuroprotective activity in mouse RAW264.7 cells assessed as inhibition of LPS-stimulated nitric oxide release at 100 uM after 20 to 24 hrs by Griess assay relative to control; format: functional
# [10] = system: RAW264.7; test: Neuroprotective activity in mouse RAW264.7 cells assessed as inhibition of LPS-stimulated nitric oxide release at 30 uM after 20 to 24 hrs by Griess assay relative to control; format: functional
# [11] = organism: Homo sapiens; test: Inhibition of NMDA receptor PCP binding site (unknown origin) at 10 uM by PDSP assay relative to control
# [12] = system: RAW264.7; test: Neuroprotective activity in mouse RAW264.7 cells assessed as inhibition of LPS-stimulated nitric oxide release up to 100 uM after 20 to 24 hrs by Griess assay; format: functional, cell-based
# [13] = target: 5-hydroxytryptamine receptor 2B (Homo sapiens, UniProt P41595); test: Inhibition of 5-HT2B receptor (unknown origin) by PDSP assay
# [14] = target: Histamine H4 receptor (Homo sapiens, UniProt Q9H3N8); test: Inhibition of histamine H4 receptor (unknown origin) by PDSP assay
# [15] = system: RAW264.7; test: Neuroprotective activity in mouse RAW264.7 cells assessed as inhibition of LPS-stimulated nitric oxide release at 75 uM after 20 to 24 hrs by Griess assay relative to control; format: functional
# [16] = target: 5-hydroxytryptamine receptor 7 (Homo sapiens, UniProt P34969); test: Inhibition of 5-HT7 receptor (unknown origin) by PDSP assay
# [17] = Inhibition of Ca2+ channel (unknown origin) by PDSP assay; design: species or system Homo sapiens
# [18] = Inhibition of rat brain BZP receptor by PDSP assay
# [19] = target: Histamine H3 receptor (Homo sapiens, UniProt Q9Y5N1); test: Inhibition of histamine H3 receptor (unknown origin) by PDSP assay
# Sequence of Histamine H3 receptor (Q9Y5N1 whole entry): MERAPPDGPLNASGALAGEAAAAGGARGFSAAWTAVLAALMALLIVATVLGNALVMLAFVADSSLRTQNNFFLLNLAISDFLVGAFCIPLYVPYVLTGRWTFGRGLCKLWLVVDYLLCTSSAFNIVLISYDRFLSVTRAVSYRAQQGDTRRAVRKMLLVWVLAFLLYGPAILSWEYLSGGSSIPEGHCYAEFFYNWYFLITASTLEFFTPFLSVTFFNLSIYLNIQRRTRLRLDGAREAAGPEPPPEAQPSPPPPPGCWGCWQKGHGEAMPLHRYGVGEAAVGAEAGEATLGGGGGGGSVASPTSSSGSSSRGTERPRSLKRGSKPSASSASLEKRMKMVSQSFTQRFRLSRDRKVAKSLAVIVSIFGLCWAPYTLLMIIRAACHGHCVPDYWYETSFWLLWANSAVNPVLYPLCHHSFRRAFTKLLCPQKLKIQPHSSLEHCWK
# Sequence of 5-hydroxytryptamine receptor 5A (P47898 whole entry): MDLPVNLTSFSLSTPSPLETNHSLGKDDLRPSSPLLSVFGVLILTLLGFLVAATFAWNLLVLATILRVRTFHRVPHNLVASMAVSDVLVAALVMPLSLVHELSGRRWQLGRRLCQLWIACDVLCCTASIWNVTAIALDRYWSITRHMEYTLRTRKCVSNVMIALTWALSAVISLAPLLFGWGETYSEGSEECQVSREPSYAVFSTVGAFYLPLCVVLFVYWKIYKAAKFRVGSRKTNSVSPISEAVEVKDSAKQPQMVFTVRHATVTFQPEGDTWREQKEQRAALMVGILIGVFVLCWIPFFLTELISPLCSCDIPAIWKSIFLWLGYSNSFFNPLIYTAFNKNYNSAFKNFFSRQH
# Sequence of 5-hydroxytryptamine receptor 2B (P41595 whole entry): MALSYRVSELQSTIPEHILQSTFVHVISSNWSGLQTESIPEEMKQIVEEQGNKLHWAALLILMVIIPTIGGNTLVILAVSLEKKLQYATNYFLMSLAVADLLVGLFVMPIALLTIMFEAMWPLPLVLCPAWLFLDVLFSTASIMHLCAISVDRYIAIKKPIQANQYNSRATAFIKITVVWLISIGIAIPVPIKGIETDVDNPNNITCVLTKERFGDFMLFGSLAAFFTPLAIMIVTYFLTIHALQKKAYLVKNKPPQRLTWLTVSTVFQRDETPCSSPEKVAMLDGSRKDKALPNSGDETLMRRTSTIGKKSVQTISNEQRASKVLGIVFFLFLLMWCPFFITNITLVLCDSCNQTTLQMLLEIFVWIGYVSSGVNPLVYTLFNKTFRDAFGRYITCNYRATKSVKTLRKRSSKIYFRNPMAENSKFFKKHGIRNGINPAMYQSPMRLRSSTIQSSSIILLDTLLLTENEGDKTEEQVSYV
# Sequence of D(4) dopamine receptor (P21917 whole entry): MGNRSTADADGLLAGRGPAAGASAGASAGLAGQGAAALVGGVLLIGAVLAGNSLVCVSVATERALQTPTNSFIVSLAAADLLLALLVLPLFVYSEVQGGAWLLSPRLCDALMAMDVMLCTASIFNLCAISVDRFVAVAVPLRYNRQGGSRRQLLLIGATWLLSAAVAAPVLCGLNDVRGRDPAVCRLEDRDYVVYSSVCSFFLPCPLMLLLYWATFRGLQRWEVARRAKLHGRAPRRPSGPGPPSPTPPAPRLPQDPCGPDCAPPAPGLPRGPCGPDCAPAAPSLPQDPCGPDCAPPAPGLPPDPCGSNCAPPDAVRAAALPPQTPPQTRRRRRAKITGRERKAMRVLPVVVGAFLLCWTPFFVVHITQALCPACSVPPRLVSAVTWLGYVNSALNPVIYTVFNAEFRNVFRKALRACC
# Sequence of 5-hydroxytryptamine receptor 6 (P50406 whole entry): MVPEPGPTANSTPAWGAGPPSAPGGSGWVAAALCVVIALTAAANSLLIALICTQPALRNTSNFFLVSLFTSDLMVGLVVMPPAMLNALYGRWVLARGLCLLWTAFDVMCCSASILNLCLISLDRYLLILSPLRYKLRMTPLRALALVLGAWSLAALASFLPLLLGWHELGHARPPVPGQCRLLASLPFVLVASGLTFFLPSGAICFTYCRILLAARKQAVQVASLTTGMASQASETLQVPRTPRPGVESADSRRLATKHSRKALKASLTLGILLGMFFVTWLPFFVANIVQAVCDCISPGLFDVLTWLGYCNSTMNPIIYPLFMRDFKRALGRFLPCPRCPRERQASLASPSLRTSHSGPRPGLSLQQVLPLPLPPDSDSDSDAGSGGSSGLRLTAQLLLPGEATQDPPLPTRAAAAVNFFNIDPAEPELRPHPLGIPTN
# Sequence of Sodium-dependent noradrenaline transporter (P23975 whole entry): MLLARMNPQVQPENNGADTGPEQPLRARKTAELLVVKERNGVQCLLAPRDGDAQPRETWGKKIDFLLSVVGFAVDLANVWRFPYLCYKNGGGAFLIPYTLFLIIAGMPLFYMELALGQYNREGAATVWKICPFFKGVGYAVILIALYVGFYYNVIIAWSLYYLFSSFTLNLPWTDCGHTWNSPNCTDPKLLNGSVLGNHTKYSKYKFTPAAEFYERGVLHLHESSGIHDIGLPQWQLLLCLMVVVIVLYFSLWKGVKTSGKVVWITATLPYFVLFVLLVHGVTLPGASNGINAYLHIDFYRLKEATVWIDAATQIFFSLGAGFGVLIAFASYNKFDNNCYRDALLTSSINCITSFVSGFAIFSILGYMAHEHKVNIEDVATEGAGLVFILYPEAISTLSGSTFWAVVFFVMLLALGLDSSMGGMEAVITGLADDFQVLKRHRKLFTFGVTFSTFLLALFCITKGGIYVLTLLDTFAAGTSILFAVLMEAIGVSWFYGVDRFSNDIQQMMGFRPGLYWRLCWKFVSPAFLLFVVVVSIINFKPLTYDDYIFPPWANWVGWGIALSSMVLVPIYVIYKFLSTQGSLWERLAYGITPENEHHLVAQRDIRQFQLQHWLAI
# Sequence of 5-hydroxytryptamine receptor 1A (P08908 whole entry): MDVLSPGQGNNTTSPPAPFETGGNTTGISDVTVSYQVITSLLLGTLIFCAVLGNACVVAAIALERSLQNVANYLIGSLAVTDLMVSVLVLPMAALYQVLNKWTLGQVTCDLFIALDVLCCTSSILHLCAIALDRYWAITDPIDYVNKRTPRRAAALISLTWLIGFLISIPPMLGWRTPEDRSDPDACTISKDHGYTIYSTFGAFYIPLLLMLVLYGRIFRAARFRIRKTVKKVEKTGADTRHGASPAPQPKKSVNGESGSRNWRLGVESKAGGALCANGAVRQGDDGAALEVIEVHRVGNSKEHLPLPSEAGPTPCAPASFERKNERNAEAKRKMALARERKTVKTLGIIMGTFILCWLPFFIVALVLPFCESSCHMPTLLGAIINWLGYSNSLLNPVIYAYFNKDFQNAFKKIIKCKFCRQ
# Sequence of Histamine H4 receptor (Q9H3N8 whole entry): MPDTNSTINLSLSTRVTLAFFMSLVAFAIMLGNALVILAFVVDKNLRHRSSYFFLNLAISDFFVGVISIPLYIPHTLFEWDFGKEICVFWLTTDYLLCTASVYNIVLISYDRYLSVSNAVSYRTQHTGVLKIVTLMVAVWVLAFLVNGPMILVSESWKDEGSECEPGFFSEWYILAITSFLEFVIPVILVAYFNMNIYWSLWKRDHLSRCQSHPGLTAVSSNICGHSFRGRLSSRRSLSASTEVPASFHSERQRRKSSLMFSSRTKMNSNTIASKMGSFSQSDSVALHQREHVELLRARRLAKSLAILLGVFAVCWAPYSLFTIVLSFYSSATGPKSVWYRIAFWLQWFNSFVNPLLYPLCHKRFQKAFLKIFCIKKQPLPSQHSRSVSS
# Sequence of Mu-type opioid receptor (P35372 whole entry): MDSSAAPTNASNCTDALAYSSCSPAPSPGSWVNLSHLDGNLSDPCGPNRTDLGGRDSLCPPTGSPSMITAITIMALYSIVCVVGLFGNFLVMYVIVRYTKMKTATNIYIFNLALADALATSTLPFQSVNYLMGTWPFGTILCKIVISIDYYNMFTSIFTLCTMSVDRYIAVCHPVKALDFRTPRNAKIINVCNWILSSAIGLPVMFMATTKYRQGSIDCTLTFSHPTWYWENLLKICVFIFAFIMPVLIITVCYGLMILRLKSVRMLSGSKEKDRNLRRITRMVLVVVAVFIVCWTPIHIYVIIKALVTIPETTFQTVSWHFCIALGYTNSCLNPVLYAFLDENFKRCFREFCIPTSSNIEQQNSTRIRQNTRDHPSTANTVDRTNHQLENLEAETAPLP
# Sequence of 5-hydroxytryptamine receptor 7 (P34969 whole entry): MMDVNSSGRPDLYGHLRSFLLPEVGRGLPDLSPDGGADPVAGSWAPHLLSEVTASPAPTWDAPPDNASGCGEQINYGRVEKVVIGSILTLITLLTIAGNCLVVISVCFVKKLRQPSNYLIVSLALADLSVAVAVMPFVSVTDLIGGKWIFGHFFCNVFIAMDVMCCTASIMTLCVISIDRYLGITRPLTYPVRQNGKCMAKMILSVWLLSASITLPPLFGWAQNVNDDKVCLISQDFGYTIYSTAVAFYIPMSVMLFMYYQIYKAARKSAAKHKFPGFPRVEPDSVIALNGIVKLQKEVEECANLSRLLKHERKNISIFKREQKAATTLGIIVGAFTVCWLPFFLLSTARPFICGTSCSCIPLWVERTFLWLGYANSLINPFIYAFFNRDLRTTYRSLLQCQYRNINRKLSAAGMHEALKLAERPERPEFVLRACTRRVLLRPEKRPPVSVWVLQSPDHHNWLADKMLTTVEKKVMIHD
# Sequence of 5-hydroxytryptamine receptor 1B (P28222 whole entry): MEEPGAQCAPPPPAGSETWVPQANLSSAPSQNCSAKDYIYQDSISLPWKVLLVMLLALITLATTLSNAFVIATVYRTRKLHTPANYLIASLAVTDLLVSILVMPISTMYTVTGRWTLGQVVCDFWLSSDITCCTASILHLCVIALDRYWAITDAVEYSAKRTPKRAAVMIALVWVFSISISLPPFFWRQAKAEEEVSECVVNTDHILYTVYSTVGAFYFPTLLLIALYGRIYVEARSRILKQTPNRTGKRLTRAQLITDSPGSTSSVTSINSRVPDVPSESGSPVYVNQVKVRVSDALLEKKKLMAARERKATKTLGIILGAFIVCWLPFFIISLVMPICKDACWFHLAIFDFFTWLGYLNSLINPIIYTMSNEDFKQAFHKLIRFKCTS
smiles,measurement,setting,value
CN(Cc1cccc(F)c1)[C@H]1C2C3CC4C2C(=O)C2C4C3C21 (stereo partly drawn),Ki,[1],> 10 µM
CN(CCc1ccccn1)[C@H]1C2C3CC4C5C3CC2C5C41 (stereo partly drawn),Ki,[2],2.79 µM
same,Ki,[3],2.12 µM
COc1ccc(CN[C@H]2C3C4CC5C6C4CC3C6C52)cc1OC (stereo partly drawn),Ki,[4],> 10 µM
c1cc2c(cc1CN[C@H]1C3C4CC5C6C4CC3C6C51)OCO2 (stereo partly drawn),Ki,[5],6.06 µM
same,Ki,[6],7.35 µM
c1ccc(CCN[C@H]2C3C4CC5C6C4CC3C6C52)cc1 (stereo partly drawn),Ki,[7],> 10 µM
same,Ki,[8],> 10 µM
same,inhibition at 100 µM,[9],17.5%
same,inhibition at 30 µM,[10],7%
CN(Cc1ccccc1)[C@H]1C2C3CC4C2C(=O)C2C4C3C21 (stereo partly drawn),inhibition,[11],< 50%
COc1cc(CN[C@H]2C3C4CC5C6C4CC3C6C52)cc(OC)c1OC (stereo partly drawn),inhibition,[12],inactive
same,Ki,[13],1.96 µM
c1ccc(CCN[C@H]2C3C4CC5C6C4CC3C6C52)nc1 (stereo partly drawn),Ki,[8],> 10 µM
same,Ki,[4],> 10 µM
same,Ki,[14],> 10 µM
C1CCC(CN[C@H]2C3C4CC5C6C4CC3C6C52)CC1 (stereo partly drawn),inhibition at 30 µM,[10],10.2%
CN(CC1CCCCC1)[C@H]1C2C3CC4C5C3CC2C5C41 (stereo partly drawn),inhibition at 75 µM,[15],88.3%
same,inhibition at 30 µM,[10],0%
CN(CCc1ccccc1)[C@H]1C2C3CC4C5C3CC2C5C41 (stereo partly drawn),Ki,[16],4.42 µM
same,Ki,[13],2.71 µM
c1ccc(CN[C@H]2C3C4CC5C6C4CC3C6C52)cc1 (stereo partly drawn),Ki,[17],3.62 µM
same,inhibition,[12],inactive
CN(Cc1ccc2c(c1)OCO2)[C@H]1C2C3CC4C5C3CC2C5C41 (stereo partly drawn),Ki,[18],4.88 µM
CN(CCCc1cccc(F)c1)[C@H]1C2C3CC4C2C(=O)C2C4C3C21 (stereo partly drawn),Ki,[19],2.05 µM
same,Ki,[6],8.53 µM
C1C2C3CC4C2C2C1C3[C@H](NCC13C5C6C7C5C1C7C63)C42 (stereo partly drawn),inhibition at 30 µM,[10],18.1%
same,Ki,[5],7.5 µM
